Test system: rat hepatocytes
Assay: In vitro hepatocyte metabolic stability assay, rat hepatocytes
Format: in vitro ADME
Settings: scaled from hepatocyte clearance at 1 μM
Experimental: In vitro evaluations of PFHxSA and PFHxS hepatocyte metabolic stability were performed in rat hepatocytes, as previously described. Also, human hepatocyte clearance data were obtained from an earlier study. Native PFHxSA was obtained from Alpha Chemistry (purity > 98.4%; Holbrook, NY, USA), and PFHxS was obtained from Ark Pharma Scientific Limited (purity > 95%; Cambridge, UK). Pooled, mixed-sex cryopreserved hepatocyte suspensions were employed in a substrate depletion approach, using a final assay concentration of 1 μM. […]
Targeted, quantitative analysis of in vitro hepatocyte metabolic stability and plasma protein binding assay samples was conducted on a Waters (Milford, MA, USA) Xevo-TQS micro ultra-high-performance liquid chromatography tandem mass spectrometry system (UPLC-MS/MS), modified with a PFAS analysis kit. Samples were analyzed in negative ion mode with UniSpray ionization. Samples were analyzed in triplicate, with a reference compound included to evaluate assay performance. […]
Intrinsic hepatic clearance (Clint) and fraction unbound in plasma (fup) were calculated from the experimental point estimate data as described in Dobreniecki et al.. […] Renal clearance was calculated using the glomerular filtration rate (a species-dependent constant) and the fraction unbound in blood (fub), estimated by adjusting the experimental fup for blood/plasma partitioning. […]

SMILES	Clhep (hepatic clearance)
O=S(=O)(O)C(F)(F)C(F)(F)C(F)(F)C(F)(F)C(F)(F)C(F)(F)F [PFHxS, perfluorohexane sulfonic acid]	0 L/h
NS(=O)(=O)C(F)(F)C(F)(F)C(F)(F)C(F)(F)C(F)(F)C(F)(F)F [PFHxSA, Perfluorohexanesulfonamide]	0.0000449 L/h

From article PMC12737022, “Evaluations of Sex Differences in Dosimetry in Rats Following Perfluorohexanesulfonamide (PFHxSA) Oral Exposure” (Toxics, 2025)
